# Measured values taken from US8604061B2, “2-aminooxazolines as TAAR1 ligands” (Hoffmann-La Roche Inc., priority 2007, dated 2013).
# Target: TAAR1 (Mus musculus, UniProt Q923Y8)
# Assay: TAAR1 radioligand binding, membranes of stably transfected HEK293 cells (mouse)
# Conditions: not given
# Experimental: For the construction of expression plasmids the coding sequences of human, rat and mouse TAAR 1 were amplified from genomic DNA essentially as described by Lindemann et al.. The Expand High Fidelity PCR System (Roche Diagnostics) was used with 1.5 mM Mg^2+ and purified PCR products were cloned into pCR2.1-TOPO cloning vector (Invitrogen) following the instructions of the manufacturer. PCR products were subcloned into the pIRESneo2 vector (BD Clontech, Palo Alto, Calif.), and expression vectors were sequence verified before introduction in cell lines.
# HEK293 cells (ATCC #CRL-1573) were cultured essentially as described Lindemann et al. (2005). For the generation of stably transfected cell lines HEK293 cells were transfected with the pIRESneo2 expression plasmids containing the TAAR coding sequences (described above) with Lipofectamine 2000 (Invitrogen) according to the instructions of the manufacturer, and 24 hrs post transfection the culture medium was supplemented with 1 mg/ml G418 (Sigma, Buchs, Switzerland). After a culture period of about 10 d clones were isolated, expanded and tested for responsiveness to trace amines (all compounds purchased from Sigma) with the cAMP Biotrak Enzyme immunoassay (EIA) System (Amersham) following the non-acetylation EIA procedure provided by the manufacturer.
# Cells at confluence were rinsed with ice-cold phosphate buffered saline without Ca^2+ and Mg^2+ containing 10 mM EDTA and pelleted by centrifugation at 1000 rpm for 5 min at 4° C. The pellet was then washed twice with ice-cold phosphate buffered saline and cell pellet was frozen immediately by immersion in liquid nitrogen and stored until use at −80° C. Cell pellet was then suspended in 20 ml HEPES-NaOH (20 mM), pH 7.4 containing 10 mM EDTA, and homogenized with a Polytron (PT 3000, Kinematica) at 10,000 rpm for 10 s. The homogenate was centrifuged at 48,000×g for 30 min at 4° C. and the pellet resuspended in 20 ml HEPES-NaOH (20 mM), pH 7.4 containing 0.1 mM EDTA (buffer A), and homogenized with a Polytron at 10,000 rpm for 10 s. The homogenate was then centrifuged at 48,000×g for 30 min at 4° C. and the pellet resuspended in 20 ml buffer A, and homogenized with a Polytron at 10,000 rpm for 10 s. Protein concentration was determined by the method of Pierce (Rockford, Ill.). The homogenate was then centrifuged at 48,000×g for 10 min at 4° C., resuspended in HEPES-NaOH (20 mM), pH 7.0 including MgCl2 (10 mM) and […] homogenized with a Polytron at 10,000 rpm for 10 s.
# Binding assay was performed at 4° C. in a final volume of 1 ml, and with an incubation time of 30 min. […] Non-specific binding was defined as the amount of [^3H]-rac-2-(1,2,3,4-tetrahydro-1-naphthyl)-2-imidazoline bound in the presence of the appropriate unlabelled ligand (10 μM). Competing ligands were tested in a wide range of concentrations (10 pM-30 μM). […] Each experiment was performed in duplicate. All incubations were terminated by rapid filtration through UniFilter-96 plates (Packard Instrument Company) and glass filter GF/C, pre-soaked for at least 2 h in polyethylenimine 0.3%, and using a Filtermate 96 Cell Harvester (Packard Instrument Company). The tubes and filters were then washed 3 times with 1 ml aliquots of cold buffer B. Filters were not dried and soaked in Ultima gold (45 μl/well, Packard Instrument Company) and bound radioactivity was counted by a TopCount Microplate Scintillation Counter (Packard Instrument Company).
row,Structure (SMILES),Ki [µM]
1,"NC1=NC(CCc2ccccc2)CO1 (racemic) [D, (RS)-4-Phenethyl-4,5-dihydro-oxazol-2-ylamine, reference compound]",0.001
2,"NC1=NC(c2ccc(Cl)cc2)CO1 (racemic) [Example 5, (RS)-4-(4-Chloro-phenyl)-4,5-dihydro-oxazol-2-ylamine]",0.0021
3,"NC1=NC(c2ccccc2C(F)(F)F)CO1 (racemic) [Example 6, (RS)-4-(2-Trifluoromethyl-phenyl)-4,5-dihydro-oxazol-2-ylamine]",0.0038
4,"NC1=NC(c2ccc(F)cc2F)CO1 (racemic) [Example 7, (RS)-4-(2,4-Difluoro-phenyl)-4,5-dihydro-oxazol-2-ylamine]",0.0083
5,"Cc1ccccc1C1COC(N)=N1 (racemic) [Example 8, (RS)-4-o-Tolyl-4,5-dihydro-oxazol-2-ylamine]",0.0058
6,"NC1=NC(c2ccc(-c3ccccc3)cc2)CO1 (racemic) [Example 10, (RS)-4-Biphenyl-4-yl-4,5-dihydro-oxazol-2-ylamine]",0.0025
7,"NC1=NC(c2ccc(OC(F)(F)F)cc2)CO1 (racemic) [Example 12, (RS)-4-(4-Trifluoromethoxy-phenyl)-4,5-dihydro-oxazol-2-ylamine]",0.008
8,"NC1=NC(c2ccc(Cl)c(Cl)c2)CO1 (racemic) [Example 14, (RS)-4-(3,4-Dichlorophenyl)-4,5-dihydro-oxazol-2-ylamine]",0.0005
9,"NC1=NC(c2cc(F)ccc2F)CO1 (racemic) [Example 16, (RS)-4-(2,5-Difluoro-phenyl)-4,5-dihydro-oxazol-2-ylamine]",0.0048
10,"NC1=NC(c2ccc(F)c(F)c2F)CO1 (racemic) [Example 17, (RS)-4-(2,3,4-Trifluoro-phenyl)-4,5-dihydro-oxazol-2-ylamine]",0.0057
11,"NC1=NC(c2cccc(Cl)c2F)CO1 (racemic) [Example 18, (RS)-4-(3-Chloro-2-fluoro-phenyl)-4,5-dihydro-oxazol-2-ylamine]",0.0022
12,"NC1=NC(c2cc(Cl)ccc2F)CO1 (racemic) [Example 19, (RS)-4-(5-Chloro-2-fluoro-phenyl)-4,5-dihydro-oxazol-2-ylamine]",0.0018
13,"NC1=NC(c2ccc(Br)cc2)CO1 (racemic) [Example 20, (RS)-4-(4-Bromo-phenyl)-4,5-dihydro-oxazol-2-ylamine]",0.0009
14,"NC1=NC(c2ccc(OCc3ccccc3)cc2)CO1 (racemic) [Example 22, (RS)-4-(4-Benzyloxy-phenyl)-4,5-dihydro-oxazol-2-ylamine]",0.0011
15,"NC1=NC(c2ccc(-c3ccc(Cl)cc3)cc2)CO1 (racemic) [Example 31, (RS)-4-(4′-Chloro-biphenyl-4-yl)-4,5-dihydro-oxazol-2-ylamine]",0.0022
16,"NC1=NC(c2ccc3c(c2)OCCO3)CO1 (racemic) [Example 32, (RS)-4-(2,3-Dihydro-benzo[1,4]dioxin-6-yl)-4,5-dihydro-oxazol-2-ylamine]",0.0029
17,"NC1=NC(c2ccc3ccccc3c2)CO1 (racemic) [Example 33, (RS)-4-Naphthalen-2-yl-4,5-dihydro-oxazol-2-ylamine]",0.0007
18,"NC1=NC(c2cccc3ccccc23)CO1 (racemic) [Example 34, (RS)-4-Naphthalen-1-yl-4,5-dihydro-oxazol-2-ylamine]",0.0011

row,Structure (SMILES),Ki [µM]
1,"COc1ccc(C2COC(N)=N2)cc1C (racemic) [Example 35, (RS)-4-(4-Methoxy-3-methyl-phenyl)-4,5-dihydro-oxazol-2-ylamine]",0.0033
2,"COc1ccc(C2COC(N)=N2)cc1Cl (racemic) [Example 36, (RS)-4-(3-Chloro-4-methoxyphenyl)-4,5-dihydro-oxazol-2-ylamine]",0.0034
3,"NC1=NC(C2CCc3ccccc3C2)CO1 (racemic) [Example 84, (RS)-4-(1,2,3,4-Tetrahydro-naphthalen-2-yl)-4,5-dihydro-oxazol-2-ylamine]",0.0017
4,"NC1=NC(c2cccc(Cl)c2)CO1 (racemic) [Example 185, (RS)-4-(3-Chloro-phenyl)-4,5-dihydro-oxazol-2-ylamine]",0.005
5,"NC1=NC(c2cccc(Br)c2)CO1 (racemic) [Example 186, (RS)-4-(3-Bromo-phenyl)-4,5-dihydro-oxazol-2-ylamine]",0.0045
6,"NC1=NC(c2cc(Cl)cc(Cl)c2)CO1 (racemic) [Example 189, (RS)-4-(3,5-Dichloro-phenyl)-4,5-dihydro-oxazol-2-ylamine]",0.0008
7,"NC1=NC(c2ccc(F)cc2C(F)(F)F)CO1 (racemic) [Example 224, (RS)-4-(4-Fluoro-2-trifluoromethyl-phenyl)-4,5-dihydro-oxazol-2-ylamine]",0.0063
8,"NC1=NC(c2cc(Cl)ccc2C(F)(F)F)CO1 (racemic) [Example 225, (RS)-4-(5-Chloro-2-trifluoromethyl-phenyl)-4,5-dihydro-oxazol-2-ylamine]",0.0062
9,"NC1=NC(c2ccc(Cl)cc2C(F)(F)F)CO1 (racemic) [Example 226, (RS)-4-(4-Chloro-2-trifluoromethyl-phenyl)-4,5-dihydro-oxazol-2-ylamine]",0.0054
10,"COc1ccc(C2COC(N)=N2)c(C(F)(F)F)c1 (racemic) [Example 229, (RS)-4-(4-Methoxy-2-trifluoromethyl-phenyl)-4,5-dihydro-oxazol-2-ylamine]",< 3
11,"NC1=NC(c2cc(Cl)c(Cl)cc2C(F)(F)F)CO1 (racemic) [Example 234, (RS)-4-(4,5-Dichloro-2-trifluoromethyl-phenyl)-4,5-dihydro-oxazol-2-ylamine]",0.0093
12,"NC1=NC(c2ccc(Cl)cc2Cl)CO1 (racemic) [Example 235, (RS)-4-(2,4-Dichloro-phenyl)-4,5-dihydro-oxazol-2-ylamine]",0.001
13,"NC1=NC(c2ccccc2Br)CO1 (racemic) [Example 237, (RS)-4-(2-Bromo-phenyl)-4,5-dihydro-oxazol-2-ylamine]",0.0025
14,"NC1=NC(c2cc(F)ccc2C(F)(F)F)CO1 (racemic) [Example 249, (RS)-4-(5-Fluoro-2-trifluoromethyl-phenyl)-4,5-dihydro-oxazol-2-ylamine]",0.0075
15,"Cc1ccc(F)cc1C1COC(N)=N1 (racemic) [Example 250, (RS)-4-(5-Fluoro-2-methyl-phenyl)-4,5-dihydro-oxazol-2-ylamine]",0.0022
16,"NC1=NC(c2ccc(Br)c(F)c2)CO1 (racemic) [Example 252, (RS)-4-(4-Bromo-3-fluoro-phenyl)-4,5-dihydro-oxazol-2-ylamine]",0.0008
17,"NC1=NC(c2cc(Cl)ccc2Cl)CO1 (racemic) [Example 260, (RS)-4-(2,5-Dichloro-phenyl)-4,5-dihydro-oxazol-2-ylamine]",0.0013

# Same assay, conditions: mouse/rat; cell not marked 'rat'; radioligand [3H]-rac-2-(1,2,3,4-tetrahydro-1-naphthyl)-2-imidazoline, 4° C.; read-out: Ki (μM) mouse/rat
row,Structure (SMILES),Ki [µM]
1,"Cc1ccc(F)c(CC2COC(N)=N2)c1 (racemic) [Example 73, (RS)-4-(2-Fluoro-5-methyl-benzyl)-4,5-dihydro-oxazol-2-ylamine]",0.0089
2,"CC1(CCc2ccccc2)COC(N)=N1 (racemic) [Example 78, (RS)-4-Methyl-4-phenethyl-4,5-dihydro-oxazol-2-ylamine]",0.0064
3,"CC1(c2cc(F)c(F)cc2F)COC(N)=N1 (racemic) [Example 251, (RS)-4-Methyl-4-(2,4,5-trifluoro-phenyl)-4,5-dihydro-oxazol-2-ylamine]",0.0086
